Reference: paper PMC2788921 (Biochemistry, 2009)

How the values were obtained:
[1] = target: benzoylformate decarboxylase (BFDC) (Pseudomonas putida, UniProt P20906); assay: stopped-flow PDA transient kinetics; format: binding
benzaldehyde lyase (BAL) = benzaldehyde lyase (BAL) (Pseudomonas fluorescens, UniProt P51853); assay: CD titration of purified BAL; format: binding
Chain of benzaldehyde lyase (BAL) (P51853 whole entry): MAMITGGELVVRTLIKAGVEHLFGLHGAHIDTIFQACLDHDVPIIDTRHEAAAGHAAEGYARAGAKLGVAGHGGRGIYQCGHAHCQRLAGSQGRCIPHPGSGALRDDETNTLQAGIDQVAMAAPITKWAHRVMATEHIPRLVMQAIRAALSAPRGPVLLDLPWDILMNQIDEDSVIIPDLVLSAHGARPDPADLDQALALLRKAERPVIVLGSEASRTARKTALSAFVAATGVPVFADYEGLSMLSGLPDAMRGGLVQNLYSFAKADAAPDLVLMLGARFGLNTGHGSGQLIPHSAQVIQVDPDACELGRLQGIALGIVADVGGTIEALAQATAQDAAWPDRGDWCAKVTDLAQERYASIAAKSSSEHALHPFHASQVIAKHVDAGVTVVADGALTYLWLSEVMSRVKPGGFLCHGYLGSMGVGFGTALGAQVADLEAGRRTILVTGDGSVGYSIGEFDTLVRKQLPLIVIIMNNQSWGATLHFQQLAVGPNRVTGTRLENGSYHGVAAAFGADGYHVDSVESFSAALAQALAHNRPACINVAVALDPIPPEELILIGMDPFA

Chain of benzoylformate decarboxylase (BFDC) (P20906 whole entry): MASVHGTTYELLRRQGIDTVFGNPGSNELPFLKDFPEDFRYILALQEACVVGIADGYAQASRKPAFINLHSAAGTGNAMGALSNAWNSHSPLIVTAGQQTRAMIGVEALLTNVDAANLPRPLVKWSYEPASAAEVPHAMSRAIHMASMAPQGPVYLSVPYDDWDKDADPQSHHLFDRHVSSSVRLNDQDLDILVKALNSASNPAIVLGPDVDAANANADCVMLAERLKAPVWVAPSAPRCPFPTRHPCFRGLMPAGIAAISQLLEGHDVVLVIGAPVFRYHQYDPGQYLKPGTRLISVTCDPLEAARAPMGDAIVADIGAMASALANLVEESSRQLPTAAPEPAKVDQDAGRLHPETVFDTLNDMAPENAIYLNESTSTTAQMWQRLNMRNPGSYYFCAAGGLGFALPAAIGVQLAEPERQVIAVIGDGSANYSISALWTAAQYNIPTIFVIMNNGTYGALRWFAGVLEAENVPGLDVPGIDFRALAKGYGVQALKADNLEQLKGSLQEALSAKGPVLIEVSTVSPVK

| Compound | Kd [1] | Kd (benzaldehyde lyase (BAL)) |
| --- | --- | --- |
| O=C(O)C(=O)/C=C/c1cccnc1 [3-PKB, (E)-2-oxo-4-(pyridin-3-yl)but-3-enoic acid] | 340 µM | – |
| O=C/C=C/c1cccnc1 [PAA, (E)-3-(pyridin-3-yl)acrylaldehyde] | – | 21.4 ± 1.98 µM |
